Data as given in patent publication EP0023083A1, “Oxodiazole derivatives, processes for their production and pharmaceutical composition containing them” (BEECHAM GROUP PLC, priority 1979, dated 1981).

Tested on: 5-hydroxy tryptamine induced bronchoconstriction
Assay: Bronchodilator activity: inhibition of 5-hydroxy tryptamine induced bronchoconstriction (Konzett-Rossler preparation)
Assay type: in vivo
Details: Cavia porcellus, iv; anaesthetised, artificially respired guinea pig
Method: The compounds were examined for their ability to inhibit 5-hydroxy tryptamine induced bronchoconstriction in the anaethetised, artifically respired guinea pig (Konzett-Rossler preparation). The compounds were administered intravenously.

Row | Structure (SMILES) | ED50 [µg/kg]
1 | CCCCCCC(C)(O)CCN1C(=O)N(C)C(=O)C1C/C=C\CCCCC(C)O (centres unmarked) [Compound 3] | 3.6
2 | CCCCCCC(C)(O)CCN1C(=O)N(C)C(=O)C1CCCCCCCC(C)O (centres unmarked) [Compound 2] | 5.5
